According to patent US8883841B2, “Oncogenic ras-specific cytotoxic compound and methods of use thereof” (The Board of Regents of the University of Texas System, priority 2005, dated 2014):

How the values were obtained:
Ovcar443 = assay: Cell viability, Ovcar443 ovary cancer cells; type: cell-based
[1] = In vivo toxicity assay in tumor-bearing nude mice; details: for serum ALT, AST, and creatinine levels: 2 days after the last treatment; for histopathologic examination of organs: lung, heart, stomach, small intestine, liver, spleen, pancreas, kidney; for blood cell counts: red blood cells, white blood cells, platelets; for body weights: vs solvent
H460 tumors = assay: In vivo antitumor activity, subcutaneous H460 tumors in nude mice; details: for suppression of growth of tumor volume in comparison with solvent / mean survival: 100 mg/kg/injection daily i.p.; for suppression of growth of tumor volume in comparison with solvent: Oncrasin-1 10 days, Oncrasin-27 3 days; for mean survival: solvent 24 days; for mean tumor volume vs solvent-treated mice: p<0.05, 5 mice per group
Procedure: The inventors have investigated the in vivo antitumor activity of Oncrasin compounds, such as Oncrasin-1 and Oncrasin-27, both are available at relatively larger scale. Subcutaneous tumors were established in 4- to 6-week-old female nude mice (Charles River Laboratories Inc., Wilmington, Mass.) by the inoculation of 1.5×10^6 H460 cells into the dorsal flank of each mouse. After the tumors grew to 5 mm in diameter, mice were treated with intraperitoneal injections of Oncrasin-1 (for 10 days) or Oncrasin-27 (for 3 days, because of limited availability of the compound) at a dose of 100 mg/kg/injection daily (the agents were dissolved in 0.5 mL of solvent containing 10% DMSO, 10% Cremophor EL, and 10% ethanol), or they were given intraperitoneal injections of solvent alone. The tumor volumes were calculated using the formula a×b^2×0.5, where a and b represent the larger and smaller diameters, respectively (Gu et al., 2000; Terashi et al., 2005). Mice were killed when the tumors grew to 1.5 cm in diameter. To evaluate the toxicity of treatment, blood samples were collected from the tail vein before treatment and 2 days after the last treatment, and serum alanine transaminase, aspartate transaminase, and creatinine levels were determined as described elsewhere (Gu et al., 2000; Terashi et al., 2005). Hematopoietic toxicity was monitored by counting red blood cells, white blood cells, and platelets (Gu et al., 2002; Terashi et al., 2005). The lung, heart, liver, intestine, spleen, and kidney were harvested after the mice were killed to test the toxic effects of both compounds on these organs. The histopathologic analysis was performed in the histology laboratory of the Department of Veterinary Medicine and Surgery at M. D. Anderson Cancer Center. […] The mean survivals for mice treated with solvent, Oncrasin-1, and Oncrasin-27 were 24, 32, and 34 days, respectively.

SKOV3 = assay: Cell viability, SKOV3 ovary cancer cells; type: cell-based
MDA-MB-231/ATCC = assay: NCI in-vitro testing, MDA-MB-231/ATCC (Breast Cancer)
HT29 = assay: NCI in-vitro testing, HT29 (Colon Cancer)
MDA-MB-435 = assay: NCI in-vitro testing, MDA-MB-435 (Breast Cancer)
SF-268 = assay: NCI in-vitro testing, SF-268 (CNS Cancer)
NCI-H460 = assay: NCI in-vitro testing, NCI-H460 (Non-Small Cell Lung Cancer)
MOLT-4 = assay: NCI in-vitro testing, MOLT-4 (Leukemia)
TK-10 = assay: NCI in-vitro testing, TK-10 (Renal Cancer)
SK-MEL-5 = assay: NCI in-vitro testing, SK-MEL-5 (Melanoma)
RPMI-8226 = assay: NCI in-vitro testing, RPMI-8226 (Leukemia)

O=Cc1cn(Cc2ccc(Cl)cc2)c2ccccc12 [Oncrasin K001, 1H-Indole-3-carboxaldehyde, 1-[(4-chlorophenyl)methyl]-(9CI)]
IC50 (−LogM) (Ovcar443): 4.5 −LogM | serum ALT, AST, and creatinine levels [1]: within the normal range | histopathologic examination of organs [1]: no significant lesions | blood cell counts [1]: all in the normal ranges | body weights [1]: No difference | suppression of growth of tumor volume in comparison with solvent (H460 tumors): 75.4% | mean survival (H460 tumors): 32 days | mean tumor volume vs solvent-treated mice (H460 tumors): differed significantly | IC50 (−LogM) (SKOV3): 5.8 −LogM

O=Cc1cn(Cc2cccc(Cl)c2)c2ccccc12 [Oncrasin K027, 1-(3-chlorobenzyl)-1H-indole-3-carbaldehyde]
GI50 (MDA-MB-231/ATCC; Homo sapiens, MDA-MB-231): 11 µM | CC50 (MDA-MB-231/ATCC; Homo sapiens, MDA-MB-231, read-out: LC50): > 100 µM | TGI (MDA-MB-231/ATCC; MDA-MB-231/ATCC): 4.23E−5 Molar | Percent Growth (MDA-MB-231/ATCC; MDA-MB-231/ATCC, Log10 Concentration −4.0 Molar): −32% | Percent Growth (MDA-MB-231/ATCC; MDA-MB-231/ATCC, Log10 Concentration −5.0 Molar): 55% | Percent Growth (MDA-MB-231/ATCC; MDA-MB-231/ATCC, Log10 Concentration −6.0 Molar): 109% | Percent Growth (MDA-MB-231/ATCC; MDA-MB-231/ATCC, Log10 Concentration −7.0 Molar): 120% | Percent Growth (MDA-MB-231/ATCC; MDA-MB-231/ATCC, Log10 Concentration −8.0 Molar): 105% | TGI (HT29; HT29): 2.01E−6 Molar | Percent Growth (HT29; HT29, Log10 Concentration −4.0 Molar): −66% | Percent Growth (HT29; HT29, Log10 Concentration −5.0 Molar): 29% | Percent Growth (HT29; HT29, Log10 Concentration −6.0 Molar): 68% | Percent Growth (HT29; HT29, Log10 Concentration −7.0 Molar): 79% | Percent Growth (HT29; HT29, Log10 Concentration −8.0 Molar): 103% | GI50 (HT29; Homo sapiens, HT-29): 0.00183 µM | CC50 (HT29; Homo sapiens, HT-29, read-out: LC50): 6.76 µM | serum ALT, AST, and creatinine levels [1]: within the normal range | histopathologic examination of organs [1]: no significant lesions | blood cell counts [1]: all in the normal ranges | body weights [1]: No difference | GI50 (MDA-MB-435; Homo sapiens, MDA-MB-435): 1.93 µM | CC50 (MDA-MB-435; Homo sapiens, MDA-MB-435, read-out: LC50): > 100 µM | TGI (MDA-MB-435; MDA-MB-435): 5.47E−5 Molar | Percent Growth (MDA-MB-435; MDA-MB-435, Log10 Concentration −4.0 Molar): −29% | Percent Growth (MDA-MB-435; MDA-MB-435, Log10 Concentration −5.0 Molar): 81% | Percent Growth (MDA-MB-435; MDA-MB-435, Log10 Concentration −6.0 Molar): 96% | Percent Growth (MDA-MB-435; MDA-MB-435, Log10 Concentration −7.0 Molar): 100% | Percent Growth (MDA-MB-435; MDA-MB-435, Log10 Concentration −8.0 Molar): 102% | suppression of growth of tumor volume in comparison with solvent (H460 tumors): 76.3% | mean survival (H460 tumors): 34 days | mean tumor volume vs solvent-treated mice (H460 tumors): differed significantly | GI50 (SF-268; Homo sapiens, SF-268): 1.24 µM | CC50 (SF-268; Homo sapiens, SF-268, read-out: LC50): > 100 µM | TGI (SF-268; SF-268): 4.58E−5 Molar | Percent Growth (SF-268; SF-268, Log10 Concentration −4.0 Molar): −30% | Percent Growth (SF-268; SF-268, Log10 Concentration −5.0 Molar): 58% | Percent Growth (SF-268; SF-268, Log10 Concentration −6.0 Molar): 94% | Percent Growth (SF-268; SF-268, Log10 Concentration −7.0 Molar): 93% | Percent Growth (SF-268; SF-268, Log10 Concentration −8.0 Molar): 106% | TGI (NCI-H460): 3.79E−5 Molar | GI50 (NCI-H460; Homo sapiens, NCI-H460): 0.0888 µM | CC50 (NCI-H460; Homo sapiens, NCI-H460, read-out: LC50): > 100 µM | Percent Growth (NCI-H460; Log10 Concentration −4.0 Molar): −9% | Percent Growth (NCI-H460; Log10 Concentration −5.0 Molar): 13% | Percent Growth (NCI-H460; Log10 Concentration −6.0 Molar): 20% | Percent Growth (NCI-H460; Log10 Concentration −7.0 Molar): 48% | Percent Growth (NCI-H460; Log10 Concentration −8.0 Molar): 79% | CC50 (MOLT-4; Homo sapiens, MOLT-4, read-out: LC50): 82.6 µM | TGI (MOLT-4; MOLT-4): 3.82E−5 Molar | Percent Growth (MOLT-4; MOLT-4, Log10 Concentration −4.0 Molar): −62% | Percent Growth (MOLT-4; MOLT-4, Log10 Concentration −5.0 Molar): 87% | Percent Growth (MOLT-4; MOLT-4, Log10 Concentration −6.0 Molar): 109% | Percent Growth (MOLT-4; MOLT-4, Log10 Concentration −7.0 Molar): 102% | Percent Growth (MOLT-4; MOLT-4, Log10 Concentration −8.0 Molar): 114% | GI50 (TK-10; Homo sapiens, TK-10): 0.0153 µM | CC50 (TK-10; Homo sapiens, TK-10, read-out: LC50): > 100 µM | TGI (TK-10; TK-10): 8.84E−8 Molar | Percent Growth (TK-10; TK-10, Log10 Concentration −4.0 Molar): −16% | Percent Growth (TK-10; TK-10, Log10 Concentration −5.0 Molar): −8% | Percent Growth (TK-10; TK-10, Log10 Concentration −6.0 Molar): −10% | Percent Growth (TK-10; TK-10, Log10 Concentration −7.0 Molar): −3% | Percent Growth (TK-10; TK-10, Log10 Concentration −8.0 Molar): 62% | GI50 (SK-MEL-5; Homo sapiens, SK-MEL-5): 4.97 µM | CC50 (SK-MEL-5; Homo sapiens, SK-MEL-5, read-out: LC50): 45.5 µM | TGI (SK-MEL-5; SK-MEL-5): 1.95E−5 Molar | Percent Growth (SK-MEL-5; SK-MEL-5, Log10 Concentration −4.0 Molar): −97% | Percent Growth (SK-MEL-5; SK-MEL-5, Log10 Concentration −5.0 Molar): 40% | Percent Growth (SK-MEL-5; SK-MEL-5, Log10 Concentration −6.0 Molar): 74% | Percent Growth (SK-MEL-5; SK-MEL-5, Log10 Concentration −7.0 Molar): 92% | Percent Growth (SK-MEL-5; SK-MEL-5, Log10 Concentration −8.0 Molar): 95% | GI50 (RPMI-8226; Homo sapiens, RPMI-8226): 0.372 µM | CC50 (RPMI-8226; Homo sapiens, RPMI-8226, read-out: LC50): > 100 µM | TGI (RPMI-8226; RPMI-8226): 3.19E−6 Molar | Percent Growth (RPMI-8226; RPMI-8226, Log10 Concentration −4.0 Molar): −35% | Percent Growth (RPMI-8226; RPMI-8226, Log10 Concentration −5.0 Molar): −23% | Percent Growth (RPMI-8226; RPMI-8226, Log10 Concentration −6.0 Molar): 24% | Percent Growth (RPMI-8226; RPMI-8226, Log10 Concentration −7.0 Molar): 85% | Percent Growth (RPMI-8226; RPMI-8226, Log10 Concentration −8.0 Molar): 119%
